{"source": "paper PMC8219695", "about": "(Nature Communications, 2021)", "key": {"[1]": {"tested_on": "C57BL/6 mice", "experiment": "Tail-flick dose-response in C57BL/6 mice", "format": "in vivo, mouse", "settings": "for ED50: Mus musculus, 0.25 h, read-out: ED50 (95% CI) tail-flick, n = 10; for mouse tail-flick assay (%MPE): 15 minute time point, individual animals", "procedure": "CD1 mice (n = 10), at peak analgesic time point. […] Dose–response curves of 22 (s.c.), in the tail-flick assay was evaluated 15 min post drug administration in WT, C57 mice (n = 8) and MOR KO mice (n = 5). Each point represents mean ± SEM.\n(§1) For analgesic dose–response experiments, male CD1 mice (20–32 g), 6–8 weeks were obtained from Charles River Laboratories and male C57BL/6 mice (22–30 g), 8–15 weeks were obtained from Jackson Lab (Bar Harbor, ME) and housed 5 mice per cage in a vivarium following an IACUC-approved protocol. For male C57BL/6 mice temperature was kept constant at 22 ± 2 °C, and relative humidity was maintained at 50 ± 5%. For male CD1 mice (20–32 g) the temperature was in the range of 20–26 °C and relative humidity maintained within the range of 30–70%. Mice were given access to food and tap water ad libitum. All mice used throughout the manuscript were opioid naïve. All mice were maintained on a 12 h light/dark cycle with Purina rodent chow and water available ad libitum and housed in groups of five until testing.\nTail-flick antinociception was determined using the radiant heat tail-flick technique using an Ugo Basile model 37360 instrument as previously described[95],[96]. The intensity was set to achieve a baseline between 2 and 3 s. Baseline latencies were determined before experimental treatments for all mice. Tail-flick antinociception was assessed as an increase in baseline latency, with a maximal 15 s latency to minimize damage to the tail. Data were analyzed as percent maximal effect, % MPE, and was calculated according to the formula: % MPE = [(observed latency – baseline latency)/(maximal latency – baseline latency)] × 100. Compounds were injected s.c. and antinociception was assessed at the peak effect. Mice were tested for analgesia with cumulative subcutaneous doses of the drug until the mouse can withstand the maximal latency. Once the mouse reached the maximal latency, the mouse was no longer given higher doses. […] In vivo experiments were evaluated using GraphPad Prism 8, San Diego, CA as described above.\n96-well plate (no. 60050; Perkin Elmer; Waltham, MA, USA). At time zero, the luciferase substrate coelenterazine H (5 μM) was added to each well. Ligands were added after 5 min, then BRET signal was measured 10 min later. BRET measurements were performed using a PHERAstar FS plate reader (BMG Labtech, Cary, NC, USA). The BRET signal was calculated as the ratio of the light emitted by the mVenus […]\nDose–response curves were fit using a three-parameter logistic equation in GraphPad Prism 8 (Graphpad Software, La Jolla, CA, USA).\nAll experiments were repeated in at least three independent trials each with triplicate determinations.\nas §1, with “dose-response” for “dose–response”, “g),6-8” for “g), 6–8”, “20-26” for “20–26”, “30-70%.” for “30–70%.”\nFor analgesic testing in knockout animals, wild-type, male C57BL/6 mice (22–33 g), 10-12 weeks were purchased from the Jackson Lab (Bar Harbor, ME). These mice were kept at a constant temperature of 22 ± 2 °C, and relative humidity was maintained at 40-50%. Exon-1/Exon-11 MOR-1 KO mice on a C57 background were bred in the Pintar laboratory at Rutgers University. All mice were maintained on a 12- […]"}, "[2]": {"target": "T1, hMOR (Homo sapiens, UniProt P35372)", "T1 construct": "expressed in transfected cells; plasmid a gift from Dr. Nevin Lambert", "T1 sequence (P35372 whole entry)": "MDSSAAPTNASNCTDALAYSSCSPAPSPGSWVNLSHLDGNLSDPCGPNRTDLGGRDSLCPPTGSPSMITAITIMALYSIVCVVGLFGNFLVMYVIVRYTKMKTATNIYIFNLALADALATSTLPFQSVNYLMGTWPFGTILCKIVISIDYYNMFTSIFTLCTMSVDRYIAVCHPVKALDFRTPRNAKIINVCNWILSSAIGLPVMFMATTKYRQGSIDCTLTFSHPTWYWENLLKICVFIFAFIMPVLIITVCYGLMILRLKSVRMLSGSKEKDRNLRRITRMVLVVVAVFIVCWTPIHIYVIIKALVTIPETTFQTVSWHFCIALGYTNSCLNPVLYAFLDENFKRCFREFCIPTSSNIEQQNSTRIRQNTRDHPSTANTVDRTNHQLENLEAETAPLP", "experiment": "cell-based", "settings": "read-out: Emax hMOR"}, "[3]": {"tested_on": "mice", "settings": "previously determined; cited from earlier work"}, "[4]": {"target": "hKOR (Homo sapiens, UniProt P41145)", "sequence (P41145 whole entry)": "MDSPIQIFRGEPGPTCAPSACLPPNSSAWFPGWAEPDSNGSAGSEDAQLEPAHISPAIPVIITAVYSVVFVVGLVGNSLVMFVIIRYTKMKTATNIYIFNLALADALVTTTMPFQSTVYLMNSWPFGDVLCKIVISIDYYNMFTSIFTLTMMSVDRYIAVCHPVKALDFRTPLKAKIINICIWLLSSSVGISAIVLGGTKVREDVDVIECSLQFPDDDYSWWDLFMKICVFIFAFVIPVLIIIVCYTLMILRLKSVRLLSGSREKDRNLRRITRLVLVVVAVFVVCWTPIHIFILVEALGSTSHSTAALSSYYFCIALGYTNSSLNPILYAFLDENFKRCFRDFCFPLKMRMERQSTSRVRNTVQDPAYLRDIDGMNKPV", "experiment": "CAMYEL BRET antagonism assay at hKOR (inhibition of U-50,488)", "format": "cell-based", "settings": "for raw BRET response, antagonist activity at the hKOR (Supplementary Figure 10A): vs EC80 U50,488, replicate raw values"}, "[5]": {"target": "T2, rKOR (Rattus norvegicus, UniProt P34975)", "T2 construct": "expressed in transfected cells", "T2 sequence (P34975 whole entry)": "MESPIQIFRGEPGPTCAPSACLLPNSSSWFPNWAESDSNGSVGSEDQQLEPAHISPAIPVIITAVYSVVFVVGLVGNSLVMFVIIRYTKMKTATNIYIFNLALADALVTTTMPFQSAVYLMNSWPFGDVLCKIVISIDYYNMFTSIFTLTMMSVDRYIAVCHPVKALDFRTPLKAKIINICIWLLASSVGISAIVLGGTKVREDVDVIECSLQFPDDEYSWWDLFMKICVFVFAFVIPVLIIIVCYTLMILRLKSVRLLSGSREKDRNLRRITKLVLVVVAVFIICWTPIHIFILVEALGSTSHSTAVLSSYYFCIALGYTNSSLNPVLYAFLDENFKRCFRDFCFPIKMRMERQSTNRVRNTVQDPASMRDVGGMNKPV", "experiment": "CAMYEL BRET antagonism assay at rKOR (inhibition of U-50,488)", "format": "cell-based", "settings": "inhibition of reference agonist U50,488 (EC80)"}, "[6]": {"target": "T3, mDOR (Mus musculus, UniProt P32300)", "T3 construct": "expressed in transfected cells", "T3 sequence (P32300 whole entry)": "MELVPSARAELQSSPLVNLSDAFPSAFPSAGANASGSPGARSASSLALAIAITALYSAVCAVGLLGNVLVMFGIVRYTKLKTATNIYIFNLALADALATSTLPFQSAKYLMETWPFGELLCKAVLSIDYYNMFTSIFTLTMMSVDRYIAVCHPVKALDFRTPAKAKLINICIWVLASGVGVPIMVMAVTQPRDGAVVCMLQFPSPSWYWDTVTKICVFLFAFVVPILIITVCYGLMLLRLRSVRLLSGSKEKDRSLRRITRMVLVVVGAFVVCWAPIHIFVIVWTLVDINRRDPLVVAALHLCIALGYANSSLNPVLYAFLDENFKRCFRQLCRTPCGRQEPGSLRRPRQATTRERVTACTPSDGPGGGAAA", "experiment": "CAMYEL BRET antagonism assay at mDOR (inhibition of DPDPE)", "format": "cell-based", "settings": "for Antagonist activity at the mDOR (raw signal): individual replicates, Supplementary Figure 9B source data"}, "[7]": {"settings": "sc, s.c., 15 min time point, C57BL/6 mice"}}, "note": "“And” between values parts separate entries of the source, which are not always exact repeats. Equal values may be shown once."}
{"smiles": "CC[C@@H]1CN2CC[C@@]3(O)C(=Nc4cccc(OC)c43)[C@@H]2C[C@@H]1/C(=C\\OC)C(=O)OC", "note": "[7OH, 7-Hydroxymitragynine, reference compound]", "values": [{"measurement": "ED50", "setting": "[1]; [7]", "result": 0.25, "unit": "mg/kg"}, {"measurement": "mouse tail-flick assay (%MPE)", "setting": "[1]; dose 0.1, s.c., listed as 7-OH mitragynine", "result": "5.405 %MPE and 8.511 %MPE and 8.661 %MPE and 16.5289 %MPE and 34.8214 %MPE and 6.87 %MPE and 7.627 %MPE and -5.556 %MPE and 0.7299 %MPE and 3.6036 %MPE"}, {"measurement": "mouse tail-flick assay (%MPE)", "setting": "[1]; dose 0.3, s.c., listed as 7-OH mitragynine", "result": "36.036 %MPE and 12.0567 %MPE and 36.2205 %MPE and 44.6281 %MPE and 52.6786 %MPE and 100 %MPE (3×) and 73.7288 %MPE and 72.2628 %MPE"}, {"measurement": "mouse tail-flick assay (%MPE)", "setting": "[1]; dose 1, s.c.", "result": 100, "unit": "%MPE"}, {"measurement": "analgesic efficacy (Emax)", "setting": "[1]; s.c., 15 min time point, C57BL/6 mice, 7OH normalized to 100%", "result": 100, "unit": "%"}, {"measurement": "Emax", "setting": "[2]", "result": "~22", "unit": "%"}, {"measurement": "ED50 (95% CI) mouse tail-flick", "setting": "[3]", "result": "0.57 (0.19–1.7) mg/kg"}]}
{"smiles": "CC[C@@H]1CN2CC[C@@]3(O)C(=Nc4cc(F)cc(OC)c43)[C@@H]2C[C@@H]1/C(=C\\OC)C(=O)OC", "note": "[11-F-7OH (22), 11-Fluoro-7-hydroxymitragynine]", "values": [{"measurement": "ED50", "setting": "[1]; [7]", "result": 0.18, "unit": "mg/kg"}, {"measurement": "mouse tail-flick assay (%MPE)", "setting": "[1]; dose 0.1, s.c.", "result": "1.681 %MPE and 10.3175 %MPE and -0.885 %MPE and 20.8955 %MPE and 3.731 %MPE and 1.653 %MPE and 0.813 %MPE and 15.7895 %MPE and 6.383 %MPE and 0 %MPE"}, {"measurement": "mouse tail-flick assay (%MPE)", "setting": "[1]; dose 0.3, s.c.", "result": "0.8403 %MPE and 3.1746 %MPE and -13.2743 %MPE and 18.6567 %MPE and 7.463 %MPE and 12.3967 %MPE and 9.7561 %MPE and 0 %MPE and 87.9433 %MPE and 12.2137 %MPE"}, {"measurement": "mouse tail-flick assay (%MPE)", "setting": "[1]; dose 1, s.c.", "result": "68.0672 %MPE and 18.254 %MPE and 1.77 %MPE and 24.6269 %MPE and 3.731 %MPE and 5.785 %MPE and 8.943 %MPE and 18.0451 %MPE and 87.234 %MPE and 3.053 %MPE"}, {"measurement": "mouse tail-flick assay (%MPE)", "setting": "[1]; dose 3, s.c.", "result": "18.4874 %MPE and 30.1587 %MPE and 45.1327 %MPE and 31.3433 %MPE and 5.97 %MPE and 7.438 %MPE and 17.8862 %MPE and 23.3083 %MPE and 30.4964 %MPE and 6.87 %MPE"}, {"measurement": "mouse tail-flick assay (%MPE)", "setting": "[1]; dose 10, s.c.", "result": "6.723 %MPE and 21.4286 %MPE and -9.735 %MPE and 22.3881 %MPE and 14.9254 %MPE and 0 %MPE and 17.0732 %MPE and 28.5714 %MPE and 55.3192 %MPE and 12.9771 %MPE"}, {"measurement": "analgesic efficacy (Emax)", "setting": "[1]; mouse, in vivo, sc", "result": 21, "unit": "%"}, {"measurement": "Emax", "setting": "[2]", "result": "< 10", "unit": "%"}]}
{"smiles": "CC[C@@H]1CN2CC[C@@]3(O)C(=Nc4cc(Br)cc(OC)c43)[C@@H]2C[C@@H]1/C(=C\\OC)C(=O)OC", "note": "[11-Br-7OH (24), 11-Br-7OH]", "values": [{"measurement": "raw BRET response, antagonist activity at the hKOR (Supplementary Figure 10A)", "setting": "[4]; Log[drug] (M) -5", "result": "0.01109 and 0.005199 and -0.00757 and 0.006133 and 0.001515 and 0.001933 and 0.02329 and 0.01475 and 0.01349"}, {"measurement": "raw BRET response, antagonist activity at the hKOR (Supplementary Figure 10A)", "setting": "[4]; Log[drug] (M) -6", "result": "0.0143 and 0.01072 and 0.01916 and 0.07074 and 0.07832 and 0.07872 and 0.07001 and 0.07357 and 0.05372"}, {"measurement": "raw BRET response, antagonist activity at the hKOR (Supplementary Figure 10A)", "setting": "[4]; Log[drug] (M) -7", "result": "0.06437 and 0.07728 and 0.08334 and 0.1589 and 0.1581 and 0.1664 and 0.1453 and 0.1454 and 0.1482"}, {"measurement": "raw BRET response, antagonist activity at the hKOR (Supplementary Figure 10A)", "setting": "[4]; Log[drug] (M) -8", "result": "0.1403 and 0.1362 and 0.1374 and 0.1753 and 0.1713 and 0.1791"}, {"measurement": "raw BRET response, antagonist activity at the hKOR (Supplementary Figure 10A)", "setting": "[4]; Log[drug] (M) -9", "result": "0.09403 and 0.08676 and 0.08107 and 0.1704 and 0.1868 and 0.1861 and 0.1635 and 0.1852 and 0.1823"}, {"measurement": "raw BRET response, antagonist activity at the hKOR (Supplementary Figure 10A)", "setting": "[4]; Log[drug] (M) -10", "result": "0.09782 and 0.1078 and 0.1073 and 0.1956 and 0.1911 and 0.1936 and 0.176 and 0.1692 and 0.1714"}, {"measurement": "raw BRET response, antagonist activity at the hKOR (Supplementary Figure 10A)", "setting": "[4]; Log[drug] (M) -11", "result": "0.1073 and 0.09367 and 0.109 and 0.2072 and 0.1833 and 0.1925 and 0.1707 and 0.1895 and 0.1659"}, {"measurement": "antagonism at hKOR", "setting": "[4]; inhibition of reference agonist U50,488 (EC80)", "result": "full inhibition"}, {"measurement": "antagonism at rKOR", "setting": "[5]", "result": "full inhibition"}, {"measurement": "Antagonist activity at the mDOR (raw signal)", "setting": "[6]; Log[drug] (M) -5, against EC80 DPDPE", "result": "0.06399 and 0.06291 and 0.07141 and -0.0292 and -0.02688 and -0.02364 and 0.0237 and 0.00593 and 0.00355"}, {"measurement": "Antagonist activity at the mDOR (raw signal)", "setting": "[6]; Log[drug] (M) -6, against EC80 DPDPE", "result": "0.1505 and 0.1501 and 0.1583 and 0.09131 and 0.07128 and 0.07775 and 0.02237 and 0.03499 and 0.03942"}, {"measurement": "Antagonist activity at the mDOR (raw signal)", "setting": "[6]; Log[drug] (M) -7, against EC80 DPDPE", "result": "0.2144 and 0.2068 and 0.2165 and 0.1245 and 0.1236 and 0.1249 and 0.06242 and 0.05459 and 0.06232"}, {"measurement": "Antagonist activity at the mDOR (raw signal)", "setting": "[6]; Log[drug] (M) -8, against EC80 DPDPE", "result": "0.2065 and 0.2182 and 0.2145 and 0.1188 and 0.1346 and 0.1274 and 0.05577 and 0.0581 and 0.03338"}, {"measurement": "Antagonist activity at the mDOR (raw signal)", "setting": "[6]; Log[drug] (M) -9, against EC80 DPDPE", "result": "0.2158 and 0.2138 and 0.2085 and 0.1371 and 0.1339 and 0.1253 and 0.04145 and 0.04861 and 0.04624"}, {"measurement": "Antagonist activity at the mDOR (raw signal)", "setting": "[6]; Log[drug] (M) -10, against EC80 DPDPE", "result": "0.2122 and 0.2205 and 0.2303 and 0.1255 and 0.1229 and 0.131 and 0.04756 and 0.04362 and 0.03388"}, {"measurement": "Antagonist activity at the mDOR (raw signal)", "setting": "[6]; Log[drug] (M) -11, against EC80 DPDPE", "result": "0.208 and 0.2144 and 0.211 and 0.1321 and 0.1264 and 0.1313 and 0.05075 and 0.03733 and 0.04896"}, {"measurement": "antagonism at mDOR", "setting": "[6]; inhibition of reference agonist DPDPE (EC80)", "result": "full inhibition"}]}
